Test results from patent publication US11053476B2, “Generation of cancer stem cells and use thereof” (EXOSTEM BIOTEC LTD., priority 2016, dated 2021).

tested on: Sox2; assay: Sox2 expression in generated CSCs, factor added to basic protocol; format: cell-based; conditions: PKC activation; FIG. 6B
Procedure: (§1) In order to generate CSCs in vitro, both primary differentiated cancer cells (primary glioma cells) as well as cells from a cancer cell line (U87 cells) were obtained. Glioma cells and U87 cells were trypsinized, and washed three times with medium +10% FCS. The cells were then resuspended in medium that was brought to a pH of 6.0 and were placed on a rotator and incubated for 45-90 minutes. The cells were then incubated in medium supplemented with EGF and FGF. The cells were optionally kept in mild hypoxic conditions (2-3% oxygen) during this second incubation and were then plated on bacterial plates.
(§2) Tumorspheres formed on these plates within one week and were removed from the cells that had attached to the dish. The tumorspheres were disaggregated and the cells were re-plated at limiting dilution to generate secondary spheroids. The secondary tumorspheres were then characterized for CSC specific markers, the ability to self-renew and the ability to generate tumors that recapitulate the parental tumors.
(§3) Knowing that the basic protocol for generating CSCs (acid, EGF/FGF and two rounds of sphere generation) was successful; several modifications to the protocol were examined. […] Second, a wide range of factors were found, that when supplemented to the EGF and FGF containing media, increased the efficacy of the protocol, either by increasing the number of CSCs produced or by increasing their stemness.

Row | Compound | effect on Sox2 expression | effectiveness on Sox2 expression compared with PMA
1 | PKC alpha: protein kinase C alpha; activators or overexpression | increase Sox2 expression | more effective that PMA
2 | CCCCCCCCCCCCCC(=O)O[C@@H]1[C@@H](C)[C@@]2(O)[C@@H](C=C(CO)C[C@]3(O)C(=O)C(C)=C[C@@H]23)[C@@H]2C(C)(C)[C@]12OC(C)=O [PMA, phorbol 12-myristate 13-acetate, reference compound] | increase Sox2 expression | –

tested on: CSCs generated from differentiated cancer cells; assay: Self-renewal of CSCs (secondary tumorspheres) generated from differentiated cancer cells, factor added to basic protocol; format: cell-based; conditions: added to second incubation; data not shown
Procedure: as §1, §2, §3

Row | Compound | efficacy in enhancing dedifferentiation
3 | insulin: insulin, added to the second incubation | effective
4 | CCCC(CCC)C(=O)O [Valporic acid] | effective

same assay, conditions: small molecule added to second incubation; FIG. 6A

Row | Compound | effect on rate of self-renewal
5 | C[C@@H](N)[C@H]1CC[C@H](C(=O)Nc2ccncc2)CC1 [Y-27632] | increase the rate of self-renewal
6 | N[C@@H]1C[C@H]1c1ccccc1 (racemic) [tranylcypromine] | increase the rate of self-renewal
7 | O=C(O)CCCc1ccccc1 [4-phenylbutyrate] | increase the rate of self-renewal
8 | CCCCCCCCCCCCCC=CC(O)C(CO)NC(=O)CCCCC (stereo not shown) [Ceramide C6] | increase the rate of self-renewal
9 | Cc1c[nH]c(-c2cnc(NCCNc3ccc(C#N)cn3)nc2-c2ccc(Cl)cc2Cl)n1 [CHIR99021] | increase the rate of self-renewal
10 | CCCCCCCCCCCCCC(=O)O[C@@H]1[C@@H](C)[C@@]2(O)[C@@H](C=C(CO)C[C@]3(O)C(=O)C(C)=C[C@@H]23)[C@@H]2C(C)(C)[C@]12OC(C)=O [PMA, phorbol 12-myristate 13-acetate, reference compound] | increase the rate of self-renewal
11 | Nc1nccc2c1ncn2[C@@H]1C=C(CO)[C@@H](O)[C@H]1O [3-deazaneplanocin A] | increase the rate of self-renewal
12 | Nc1ncn([C@H]2C[C@H](O)[C@@H](CO)O2)c(=O)n1 [5-aza-2′-deoxycytidine] | increase the rate of self-renewal

tested on: differentiated cancer cells; assay: Efficacy and penetrance of dedifferentiation with transcription and secreted factors; format: cell-based; conditions: expression in the cells or in their media during second incubation or tumorsphere formation
Procedure: as §1, §2
Lastly, several transcription factors and secreted factors that are known to enhance stemness or cancer progression were introduced into the differentiated cells during the second incubation or during tumorsphere formation.

Row | Compound | effect on dedifferentiation brought about by the standard protocol
13 | STAT3: transcription or secreted factor expressed in the cells or in their media | increase the efficacy and penetrance of the dedifferentiation
14 | LIF: transcription or secreted factor expressed in the cells or in their media | increase the efficacy and penetrance of the dedifferentiation
15 | NANOG: transcription or secreted factor expressed in the cells or in their media | increase the efficacy and penetrance of the dedifferentiation
